According to US20160354333A1, “COMPOSITIONS OF POLYUNSATURATED FATTY ACIDS AND METHODS OF USE THEREOF” (UND Life Sciences, LLC, priority 2015, published 2016):
Read-outs that look alike come from different tables or passages of the source. Each block holds one molecule with its values, some of them ahead of it.

Columns and labels:
tumor cells [1] = experiment: Tumoricidal action: ability to induce apoptosis of tumor cells; format: cell-based
Source text: For instance, GLA is metabolized in the tumor cells to form 15-, 12- and 8-OH 20 carbon and 13-OH 18 carbon fatty acid derivatives that seem to be responsible for the apoptosis of tumor cells. In contrast to this, DGLA could go through an exclusive C-8 oxygenation pathway during COX-catalyzed lipid peroxidation in addition to a C-15 oxygenation pathway shared by both DGLA and AA, and that the exclusive C-8 oxygenation could lead to the production of distinct DGLA's free radical derivatives that may be correlated with DGLA's anti-proliferation activity. As shown below DGLA can go through a unique C-8 oxygenation reaction pathway, in addition to a C-15 oxygenation pathway shared by both DGLA and AA.
similar to the one that is formed from DGLA as described above) product, instead of the more common aldehyde. Thus, it is evident that the peroxidation products formed from GLA, DGLA and AA are totally different, and this may account for the differences in their tumoricidal action wherein GLA>DGA>AA with regard to their ability to induce apoptosis of tumor cells.

[2] = test system: IFN-sensitive / IFN-resistant tumor cells; experiment: Apoptosis and lipid droplet accumulation in IFN-sensitive and IFN-resistant tumor cells; format: cell-based; conditions: IFN-resistant cells pre-treated with GLA/AA, then exposed to IFN
Source text: The present inventor also unexpectedly discovered that the anti-cancer actions of interferon (IFN) and tumor necrosis factor-a (TNF-a) need the presence of substantial amounts of cellular content of GLA, AA, EPA and DHA (˜GLA≧AA>EPA>DHA).

[3] = test system: bone marrow cells of mice; experiment: Side effects of gamma-radiation and cis-platinum on bone marrow cells of mice; format: in vivo
Source text: Thus, it appears that when PUFAs and conventional anti-cancer drugs/agents are given together they not only act to potentiate the cytotoxic action of each other on the tumor cells and thus, produce synergistic and/or additive action on their ability to eliminate the tumor cells but it will also lead to elimination, reduction, or amelioration of the side effects of conventional anti-cancer agents. Since, PUFAs are able to potentiate the cytotoxic action(s) of conventional anti-cancer drugs (agents) and cytokines; it is also possible that this will lead to a significant reduction in the doses of these latter agents without compromising the ultimate benefit namely, elimination of tumor cells or the tumor. Accordingly, certain embodiments are directed to methods comprising administering a PUFA (e.g., GLA) containing compositions as described herein and a conventional anti-cancer drug to a subject in need thereof.

normal cells = conditions: 10 μg/ml GLA, 1×10^4 cells, 72 hrs
Source text: FIG. 9 provides cytotoxicity data in normal cells for GLA solutions in varying concentrations of ethanol.

[4] = 0.01% ethanol/saline/PBS pH 7.4 at 37° C. versus saline/PBS, no lithium
Source text: FIG. 7 is additional stability data for GLA solutions comprising 0.01% ethanol/saline/PBS or saline/PBS without added lithium.

cancer cells = conditions: 72 hrs
[5] = Description: In a separate experiment, GLA was dissolved in saline/PBS (pH 7.4) comprising 0.01% ethanol at 37° C. or saline/PBS (pH 7.4), and different concentrations of lithium was added. At the end of the incubation time the concentration of GLA present was tested. […] The same test system is used to test the effect of Mg, Mn, Zn, Fe, Cu salts on the stability of GLA. The concentrations of these metals used are same as that of Lithium.
tumor cells [6] = conditions: solvent (ethyl alcohol) content above 0.01% and lower than 0.001%
[7] = 1 mg GLA, 0.01% ethanol PBS/saline; GLA:lithium ratio exceeding about 1:0.01
Description: The effect of lithium as an exemplary stabilizing agent in compositions of GLA was tested as follows. To 1 mg (1000 μg) of GLA dissolved in a solution of PBS/saline comprising 0.01% ethanol was added different concentrations of lithium (as lithium chloride), and after a specific period of incubation the concentration of GLA present in the solution was tested.

cancer = conditions: free acid form versus other forms
Source text: In general, it was believed that the potency of actions of a free acid form is equal to or similar to sodium salt, ethyl ester, methyl ester or other forms of salts, esters, glycerides, amides, or phospholipids, or alkylated, alkoxylated, halogenated, sulfonated, or phosphorylated forms of the fatty acid.

IMR-32 cells = experiment: Growth of IMR-32 cells; format: cell-based; set-up: unit of the concentration uncertain
Source text: hypercalcemia, tumor cancer cell proliferation, tumor angiogenesis and resistance of tumor to anti-VEGF therapy (see FIG. 1). In addition, PGE2 may have the ability to modulate NO generation. […] Though this growth promoting action of indomethacin and NDGA could be attributed to their non-specific anti-oxidant actions, it is equally possible that some unknown products have been generated from PUFAs that have growth promoting actions. […] Accordingly, treatment of tumor cells with PUFAs according to embodiments of the invention is believed to be a viable treatment method for cancers, such as glioma.

Structure (SMILES): CCCCC/C=C\C/C=C\C/C=C\C/C=C\CCCC(=O)O [AA, arachidonic acid, reference compound]
- rank order of ability to induce apoptosis of tumor cells (tumor cells [1]): GLA>DGA>AA
- apoptosis and lipid droplets [2]: both induction of apoptosis and accumulation of lipid droplets in the tumor cells were seen
- side effects of gamma-radiation and cis-platinum to bone marrow cells [3]: prevent or ameliorate the side effects

Structure (SMILES): CCCCC/C=C\C/C=C\C/C=C\CCCCCCC(=O)O [DGLA, di-homo gamma linolenic acid]
- rank order of ability to induce apoptosis of tumor cells (tumor cells [1]): GLA>DGA>AA

- stability of GLA (percentage of original GLA remaining) [4]: stabilizing effect
- concentration of GLA relative to lithium ([5]; Mg, Mn, Zn, Fe, Cu salts, same concentrations and incubation periods as lithium): decrease the concentration of GLA
- stability of GLA (percentage of original GLA remaining) ([5]; comparison solutions, printed as 'solutions with ethanol'): less stable
- stability of GLA (percentage of original GLA remaining) ([5]; saline/PBS pH 7.4 with 0.01% ethanol at 37° C. plus lithium): stabilizing effect
- stability of GLA (percentage of original GLA remaining) [7]: stability of GLA decreased
Structure (SMILES): CCCCC/C=C\C/C=C\C/C=C\CCCCC(=O)O [GLA, gamma-linolenic acid]
- rank order of ability to induce apoptosis of tumor cells (tumor cells [1]): GLA>DGA>AA
- background death of cells (normal cells): 10-15%
- apoptosis and lipid droplets [2]: both induction of apoptosis and accumulation of lipid droplets in the tumor cells were seen
- background death of cells (cancer cells; 10 μg/ml GLA, 1×10^4 cells): 10-15%
- generation of LXA4 (RIN cells; PUFAs 15 μg, pretreatment with alloxan, simultaneous treatment with STZ): greater than or equal to all other fatty acids tested
- formation of LXA4 (RIN cells; studies performed in support of the invention): enhances the formation of LXA4
- activity, stability and tumoricidal action (tumor cells [6]): relatively inactive, unstable and its tumoricidal action inefficient
- potency of anti-cancer action (cancer): more potent than sodium salt, ethyl ester, methyl ester
- side effects of gamma-radiation and cis-platinum to bone marrow cells [3]: prevent or ameliorate the side effects

Structure (SMILES): CCCCC/C=C\C\C=C/C=C/C=C/[C@@H](SC[C@H](N)C(=O)NCC(=O)O)[C@@H](O)CCCC(=O)O [LTD4]
- growth of IMR-32 cells (IMR-32 cells): growth inhibitory action

Structure (SMILES): CCCCC[C@H](O)/C=C/C=C\C=C\C=C\[C@@H](O)[C@@H](O)CCCC(=O)O [LXA4]
- growth of IMR-32 cells (IMR-32 cells): inhibited the growth of IMR-32 cells

Structure (SMILES): CCCCC[C@H](O)/C=C/[C@H]1[C@H](O)CC(=O)[C@@H]1CCCCCCC(=O)O [PGE1]
- growth of IMR-32 cells (IMR-32 cells): growth inhibitory action

Structure (SMILES): CCCCC[C@H](O)/C=C/[C@H]1[C@H](O)CC(=O)[C@@H]1C/C=C\CCCC(=O)O [PGE2]
- growth of IMR-32 cells (IMR-32 cells): growth inhibitory action

Structure (SMILES): CCO [ethanol]
- concentration of ethanol resulting in cell death (cancer cells; with 10 μg/ml GLA in saline/PBS): above 0.01%

Structure (SMILES): COc1ccc2c(c1)c(CC(=O)O)c(C)n2C(=O)c1ccc(Cl)cc1 [indomethacin]
- growth of IMR-32 cells (IMR-32 cells; 60 (unit uncertain)): enhanced the growth of IMR-32 cells

Structure (SMILES): CC(Cc1ccc(O)c(O)c1)C(C)Cc1ccc(O)c(O)c1 (stereo not shown) [nordihydroguaiaretic acid]
- growth of IMR-32 cells (IMR-32 cells; 20 (unit uncertain)): enhanced the growth of IMR-32 cells
